Experiments:
Phospho-KIT (Tyr719) [1] = biological target: T1, Phospho-KIT (Tyr719) (Homo sapiens, UniProt P10721, DEL560-578); experiment: GIST T1 KIT Western Blot; format: cell-based; settings: GIST T1 cells, 4 hours, serum-free medium; read-out: pKIT suppression by western blot analysi GIST T1
T1 construct: endogenous in cells; host or cells: GIST T1
Procedure: GIST48, GIST430, and GIST882 cells were obtained from J. Fletcher (Brigham and Women's Hospital, Boston, MA). GIST T1 cells were obtained from B. Rubin (Cleveland Clinic, Cleveland, OH) and Professor Takahiro Taguchi (Kochi Medical School, Nankoku, Kochi, Japan). […] GIST430 cells were grown in Ham's F10 medium supplemented with 15% characterized fetal bovine serum (Invitrogen, Carlsbad, CA), 30 mg/L bovine pituitary extract (BD Biosciences, San Jose, CA), 0.5% Mito+ serum extender (BD Biosciences, San Jose, CA), 1 unit/mL penicillin G, 1 µg/ml streptomycin, and 0.29 mg/mL L-glutamine at 37 °C, 5%CO2, 95% humidity. GIST T1 cells were grown in DMEM medium supplemented with 10% characterized fetal bovine serum (Invitrogen, Carlsbad, CA), 1 unit/mL penicillin G, 1 µg/ml streptomycin, and 0.29 mg/mL L-glutamine at 37 °C, 5% CO2, and 95% humidity. Cells were allowed to expand until reaching 70-95% confluence at which point they were subcultured or harvested for assay use.
One hundred twenty-five thousand cells were added per well in a 24-well tissue-culture treated plate. Cells were then incubated overnight at 37°C, 5% CO2, 95% humidity. Medium was aspirated, cells were washed with PBS, and serum-free DMEM medium was added. A serial dilution of test compound was added to plates containing cells and plates were incubated for 4 hours at 37°C, 5% CO2, 95% humidity. Cells were washed with PBS, then lysed. Cell lysates were separated by SDS-PAGE and transferred to PVDF. Phospho-KIT (Tyr719) was detected using an antibody from Cell Signaling Technology (Beverly, MA), ECL Plus detection reagent (GE Healthcare, Piscataway, NJ) and a Molecular Devices Storm 840 phosphorimager in fluorescence mode. Blots were stripped and probed for total KIT using an antibody from Santa Cruz Biotech (Santa Cruz, CA). IC50 values were calculated using Prism software (Graphpad, San Diego, CA).

GIST T1 cells = experiment: GIST T1 Cell Proliferation Assay; format: cell-based; settings: Homo sapiens, GISTT1, 72 h, 68 hours + 4 hours resazurin
Phospho-KIT (Tyr719) [2] = experiment: GIST430 KIT Western Blot; format: cell-based; settings: GIST430 cells, 4 hours, serum-free medium; read-out: pKIT suppression by western blot analysi GIST430
Summary of the method: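 GIST430 cells were compound-treated in serum-free Ham's F10, then lysed. Phospho-KIT (Tyr719) was measured by western blot with fluorescence-mode ECL, and blots were reprobed for total KIT; IC50 derived from concentration response.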

c-KIT VVDV kinase = biological target: T2, c-KIT VVDV kinase (Homo sapiens, UniProt P10721, D816V/DEL559-560); experiment: cKIT-VVDV kinase Assay; format: biochemical; settings: enzymatic assay; V559+V560 deletions and D816V mutation
T2 construct: This construct contains residues T544-V976 of cKit; GST (N); TEV cleavage site (internal); purchased deCODE Biostructures
Summary of the method: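 Coupled spectrophotometric format: kinase activity followed as NADH oxidation, loss of absorbance at 340 nm. Serially diluted compound mixed with the reaction mixture to start; read continuously for 5 h at 30 °C.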

T2 sequence (P10721 with tags, fused parts or gaps DEL559-560/D816V): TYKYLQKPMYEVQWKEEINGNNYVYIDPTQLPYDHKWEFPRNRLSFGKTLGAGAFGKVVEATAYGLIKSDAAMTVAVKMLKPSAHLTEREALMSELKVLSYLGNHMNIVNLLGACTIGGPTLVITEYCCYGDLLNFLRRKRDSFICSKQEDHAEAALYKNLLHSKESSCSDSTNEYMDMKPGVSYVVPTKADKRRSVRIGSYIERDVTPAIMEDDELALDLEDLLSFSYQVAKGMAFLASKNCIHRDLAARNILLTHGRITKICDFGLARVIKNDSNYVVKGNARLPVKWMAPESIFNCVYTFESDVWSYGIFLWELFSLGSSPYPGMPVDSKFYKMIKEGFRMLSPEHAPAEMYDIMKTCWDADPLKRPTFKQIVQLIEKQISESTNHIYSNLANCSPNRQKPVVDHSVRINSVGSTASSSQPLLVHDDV
T1 sequence (P10721 with tags, fused parts or gaps DEL560-578): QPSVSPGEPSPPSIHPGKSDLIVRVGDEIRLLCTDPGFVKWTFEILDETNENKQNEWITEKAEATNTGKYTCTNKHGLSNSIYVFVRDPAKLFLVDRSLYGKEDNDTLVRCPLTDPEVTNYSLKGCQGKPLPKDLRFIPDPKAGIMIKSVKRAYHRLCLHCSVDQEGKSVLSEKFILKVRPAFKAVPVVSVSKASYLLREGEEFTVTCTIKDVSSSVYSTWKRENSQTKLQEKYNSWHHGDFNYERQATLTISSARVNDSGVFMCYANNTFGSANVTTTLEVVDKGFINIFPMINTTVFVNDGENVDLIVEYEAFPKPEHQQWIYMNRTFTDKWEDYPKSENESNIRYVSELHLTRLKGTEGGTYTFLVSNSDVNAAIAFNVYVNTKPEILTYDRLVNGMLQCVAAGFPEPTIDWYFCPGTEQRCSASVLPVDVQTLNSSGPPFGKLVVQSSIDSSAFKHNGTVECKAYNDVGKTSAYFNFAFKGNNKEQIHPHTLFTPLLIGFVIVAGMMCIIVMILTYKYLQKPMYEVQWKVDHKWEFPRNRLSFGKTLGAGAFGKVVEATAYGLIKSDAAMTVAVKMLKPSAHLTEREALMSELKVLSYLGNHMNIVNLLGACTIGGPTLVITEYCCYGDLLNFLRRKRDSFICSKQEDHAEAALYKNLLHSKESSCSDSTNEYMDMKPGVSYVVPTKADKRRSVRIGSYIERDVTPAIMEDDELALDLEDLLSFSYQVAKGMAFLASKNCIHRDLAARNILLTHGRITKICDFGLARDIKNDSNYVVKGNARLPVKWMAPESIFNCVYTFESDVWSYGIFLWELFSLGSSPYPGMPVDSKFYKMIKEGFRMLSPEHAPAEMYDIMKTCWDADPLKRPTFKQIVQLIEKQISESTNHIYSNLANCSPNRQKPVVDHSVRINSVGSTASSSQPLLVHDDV

| Structure (SMILES) | IC50 (Phospho-KIT (Tyr719) [1]) | IC50 (GIST T1 cells) | IC50 (Phospho-KIT (Tyr719) [2]) | IC50 (c-KIT VVDV kinase) |
| --- | --- | --- | --- | --- |
| CCn1c(=O)c(-c2cc(NC(=O)Nc3cccc(F)c3)c(F)cc2Cl)cc2cnc(NC)cc21 [Example 24, 1-[4-chloro-5-(1-ethyl-7-methylamino-2-oxo-1,2-dihydro-[1,6]naphthyridin-3-yl)-2-fluoro-phenyl]-3-(3-fluoro-phenyl)-urea] | < 10 nM | < 10 nM | < 10 nM | < 10 nM |
| CCn1c(=O)c(-c2cc(NC(=O)Nc3cccc(F)c3)c(F)cc2Cl)cc2cnc(NCCOC)cc21 [Example 28, 1-(4-chloro-5-(1-ethyl-7-(2-methoxyethylamino)-2-oxo-1,2-dihydro-1,6-naphthyridin-3-yl)-2-fluorophenyl)-3-(3-fluorophenyl)urea] | < 10 nM | 10 to 100 nM | 10 to 100 nM | 10 to 100 nM |
| CCn1c(=O)c(-c2cc(NC(=O)Nc3csc4ccccc34)c(F)cc2Cl)cc2cnc(NC)cc21 [Example 32, 1-(benzo[b]thiophen-3-yl)-3-(4-chloro-5-(1-ethyl-7-(methylamino)-2-oxo-1,2-dihydro-1,6-naphthyridin-3-yl)-2-fluorophenyl)urea] | < 10 nM | < 10 nM | < 10 nM | < 10 nM |
| CCn1c(=O)c(-c2cc(NC(=O)Nc3cccc(F)c3)c(F)cc2C)cc2cnc(NC)cc21 [Example 44, 1-(5-(1-ethyl-7-(methylamino)-2-oxo-1,2-dihydro-1,6-naphthyridin-3-yl)-2-fluoro-4-methylphenyl)-3-(3-fluorophenyl)urea] | < 10 nM | < 10 nM | < 10 nM | 10 to 100 nM |
| CCn1c(=O)c(-c2cc(NC(=O)Nc3cccc(F)c3)c(F)cc2Br)cc2cnc(NC)cc21 [Example 50, 1-(4-bromo-5-(1-ethyl-7-(methylamino)-2-oxo-1,2-dihydro-1,6-naphthyridin-3-yl)-2-fluorophenyl)-3-(3-fluorophenyl)urea] | < 10 nM | 10 to 100 nM | < 10 nM | 100 to 1000 nM |
| CCn1c(=O)c(-c2cc(NC(=O)Nc3ccccc3)c(F)cc2Cl)cc2cnc(NC(C)=O)cc21 [Example 54, 1-(5-(7-acetamido-1-ethyl-2-oxo-1,2-dihydro-1,6-naphthyridin-3-yl)-4-chloro-2-fluorophenyl)-3-phenylurea] | < 10 nM | < 10 nM | 10 to 100 nM | < 10 nM |
| CCn1c(=O)c(-c2cc(NC(=O)Nc3csc4ccccc34)c(F)cc2C)cc2cnc(NC)cc21 [Example 59, 1-(benzo[b]thiophen-3-yl)-3-(5-(1-ethyl-7-(methylamino)-2-oxo-1,2-dihydro-1,6-naphthyridin-3-yl)-2-fluoro-4-methylphenyl)urea] | < 10 nM | 10 to 100 nM | 10 to 100 nM | 10 to 100 nM |
| CCn1c(=O)c(-c2cc(NC(=O)Nc3ccccc3)c(F)cc2Cl)cc2cnc(NC(=O)N(C)C)cc21 [Example 70, 3-(3-(2-chloro-4-fluoro-5-(3-phenylureido)phenyl)-1-ethyl-2-oxo-1,2-dihydro-1,6-naphthyridin-7-yl)-1,1-dimethylurea] | < 10 nM | < 10 nM | < 10 nM | < 10 nM |

— patent EP3722296B1, “DIHYDRONAPHTHYRIDINES AND RELATED COMPOUNDS USEFUL AS KINASE INHIBITORS FOR THE TREATMENT OF PROLIFERATIVE DISEASES” (Deciphera Pharmaceuticals, LLC, priority 2012, dated 2013)
